Measured values: publication PMC5770958, “Dual Action of Mexiletine and Its Pyrroline Derivatives as Skeletal Muscle Sodium Channel Blockers and Anti-oxidant Compounds: Toward Novel Therapeutic Potential” (Frontiers in Pharmacology, 2018)
“And” between values parts separate entries of the source, which are not always exact repeats. Identical values can stand only once. “Also recorded” adds a separate entry of the source. Like-named read-outs stand apart in the source and are kept apart here.

Legend:
[1] = Ionization constants and lipophilicity (Sirius GLpKa analyzer); assay type: physicochemical; settings: for pKa: amine group of the drugs; for logD: pH 7.4, calculated from LogP and pKa values, read-out: Log D7.4
Method: (§1) The h∞ curves have been fitted with a single Boltzmann, and the potential at which 50% of the sodium channels were inactivated (Vh1/2) was calculated at the inflection point of the curves. Statistical significance of differences between pairs of mean values has been estimated by unpaired Student's t-test and considered significant for p < 0.05. Two-way ANOVA and Bonferroni post-hoc corrections have been used for multiple comparison of experimental data means. The statistical significance between IC50 values obtained from the fit was evaluated using a number of degrees of freedom equal to the total number of preparations determining each point of the curve minus the number of means determining the curve minus two for the free parameters. The measurements of ionization constants and lipophilicity were performed on a Sirius GLpKa analyzer for pH-metric pKa and LogP (Sirius Analytical Instruments Ltd-Forest Row-UK). Correlation analysis was evaluated by fitting the experimental data point to linear regression analysis. Nonlinear equation fitting and processing for data graphics were done by FigP Software (Biosoft, Cambridge, UK).

[2] = tested on: skeletal-muscle sodium channels (NaV1.4); experiment: Recovery from inactivation of drug-bound sodium channels; open channel block check; assay type: cell-based, Rana Esculenta; settings: 3 and 10 μM
[3] = tested on: skeletal-muscle sodium channels (NaV1.4); experiment: Voltage-clamp recordings of INa in single muscle fibers: tonic block and use-dependent block; assay type: cell-based, Rana Esculenta; settings: for IC50: HP -100 mV to -20 mV; for BT/BUD (IC50 TB/IC50 UDB 10-Hz): ratio tonic to 10-Hz use-dependent block
[4] = tested on: C2C12 cells; experiment: Cyto-protective effect against H2O2-induced oxidative stress (CCK-8); assay type: cell-based, Murine; settings: for Cyto-protective effect: C2C12, 300 μM H2O2, drug 0.1-30 μM, 2 h before H2O2 plus 6 h
Method: (§2) Murine C2C12 skeletal muscle cells were cultured in DMEM supplemented with 10% fetal bovine serum, 1% penicillin, 1% streptomycin and 1% glutamine and were maintained at 37°C in 5% CO2/95% air. Cells obtained by sub-confluent cultures (about 70%) were seeded in 96 multiwell plate at a density of approximately 4.5 × 10^3 cells per well. Eighteen hours after seeding, either the cytotoxic effect of H2O2, mexiletine, Me5, their tetramethyl-pyrroline derivatives, and PP2 or the potential protective effect of all above mentioned compounds and N-acetyl cysteine (NAC) against the H2O2-induced oxidative stress has been investigated. […] To evaluate the cyto-protective effect of the drugs, C2C12 cells were incubated with the test compounds 2 h before the application of H2O2 at 300 μM and 1 mM, and then maintained for additional 6h. Two hours before absorbance lecture, 10 μl of Cell Counting Kit-8 pure solution (CCK-8 Alexis Biochemicals) was added into each well. The CCK-8 solution contains the monosodium salt of [2-(2-methoxy-4-nitrophenyl)-3-(4-nitrophenyl)-5-(2,4-disulfophenyl)-2H-tetrazolium (WST-8), which is reduced by cellular dehydrogenases to give a yellow colored product (formazan) absorbing at 450 nm. The quantity of formazan dye is directly proportional to the number of viable cells. Absorbance was measured at 450 nm with a microplate spectrophotometer (Victor V31420-40, PerkinElmer). This assay was successfully used to investigate on the mechanism of ion channel-regulated cell proliferation in cell lines (Tricarico et al., [2013]).
Fresh stock solutions of the test compounds were made daily and diluted in DMEM as required. Only for the tetramethyl-pyrroline derivatives and PP2, stock solutions in DMSO were prepared and then diluted in DMEM. The maximal concentration of DMSO in the diluted solutions was <0.2%. As expected, 0.2% DMSO had no effect on cell survival (data not shown). Accordingly, cell viability in the presence of drugs was expressed as percent change with respect to the cell treated with vehicle alone, after proper subtraction of blank absorbance.

[5] = tested on: skeletal-muscle sodium channels (NaV1.4); experiment: Steady-state inactivation (h∞) curves of sodium channels; assay type: cell-based, Rana Esculenta; settings: for Shift in the h∞ curves toward more negative potentials: 10 μM; for Vh1/2: 10 μM drug
Method: Steady-state inactivation (h∞) curves were determined by a cyclic protocol of pulse sequences.
as §1
Fig. S2: Steady-state inactivation (h∞) curves were determined by a cyclic protocol of pulse […]
duration, and a test pulse to -20 mV for 10ms; after a pause of 3 s, the sequence was repeated 18-20 times with the prepulse potential value increased each time in 5 mV steps. A more quantitative estimate of the absolute affinity constant for the inactivated state (Ki) was obtained from the voltage dependent distribution of the channels in the resting (h) and inactivated state (1-h) obtained from […]

[6] = tested on: skeletal-muscle sodium channels (NaV1.4); experiment: Voltage-dependent block of INa at HP -140 and -70 mV (resting and inactivated state affinity); assay type: cell-based, Rana Esculenta; settings: for IC50: 0.3-Hz; for Ki: computed from Kr, K-70 and h∞ curve, read-out: Inactivated state block, calculated Ki
Description: The cut-end fiber was then bathed in an internal solution and mounted across three chamber partitions, which delineated four pools. Three strips of vaseline were applied over the fiber and carefully sealed to the fiber to reduce leakage. […] Four KCl/agar bridges electrodes connected the recording chamber to the voltage-clamp amplifier based on methods described by Hille and Campbell ([1976]). For recording sodium currents (INa), the solution in the pool A was replaced with the external solution and after about 10 min of equilibration the recordings were performed at 10°C. […] Particular care was taken to verify that no change occurred in the membrane area in pool A throughout the experiments. Sodium currents were recorded using an amplifier connected via a A/D and D/A Digidata 1,200 Interface (Axon) to a 486 DX2/66 personal computer and stored on the hard disk. The stimulation protocols and data acquisition were controlled by Clampex software (pClamp6; Axon Instruments, Foster City, CA, USA) (Mele et al., [2014]). The currents flowing in response to depolarizing command voltages were low pass filtered at 10 kHz (Frequency Devices, Haverhill, MA, USA), visualized on an oscilloscope and sampled at 20 kHz. When necessary, leak and capacities currents were subtracted by P/4 method. The acquired traces were analyzed offline using Clampfit software (pClamp6; Axon Instruments). […] The degree of use-dependent block was computed as the value of the steady-state INa, max at this point normalized to the current at the same point in the absence of drug. This parameter reflects the potency of the drug for blocking the channels under conditions of high-frequency stimulation (i.e., as occurs during myotonic action potential firing) (De Luca et al., [2003a],[b]). […] The concentration-dependence of the drug effect was calculated as the half-maximal blocking concentration (IC50) at −140 mV, which allowed calculation of the affinity constant for the resting state (Kr). […] The affinity constant of the drug for the inactivated channel (Ki) was the computed as described below. Steady-state inactivation (h∞) curves were determined by a cyclic protocol of pulse sequences. […] Muraglia et al., [2014]). All data were expressed as mean ± S.E.M. The IC50 values, in the various experimental conditions, were determined by using a non-linear least squares fit of the concentration-response curves to the following logistic equation: […] K is IC50; n is the logistic slope factor, and [drug] is the molar concentration of the compound (Talon et al., [2001]). […] Statistical significance of differences between pairs of mean values has been estimated by unpaired Student's t-test and considered significant for p < 0.05. Two-way ANOVA and Bonferroni post-hoc corrections have been used for multiple comparison of experimental data means. The statistical significance between IC50 values obtained from the fit was evaluated using a number of degrees of freedom equal to the total number of preparations determining each point of the curve minus the number of means determining the curve minus two for the free parameters. The measurements of ionization constants and lipophilicity were performed on a Sirius GLpKa analyzer for pH-metric pKa and LogP (Sirius Analytical Instruments Ltd-Forest Row-UK). Correlation analysis was evaluated by fitting the experimental data point to linear regression analysis. Nonlinear equation fitting and processing for data graphics were done by FigP Software (Biosoft, Cambridge, UK).

[7] = tested on: C2C12 cells; experiment: Cell culture cytotoxicity assay (CCK-8), 8 h incubation; assay type: cell-based, Murine
Method: as §2, with “The CCK-8 solution contains the monosodium salt of [2-(2-methoxy-4-nitrophenyl)-3-(4-nitrophenyl)-5-(2,4-disulfophenyl)-2H-tetrazolium (WST-8), which is reduced by cellular dehydrogenases to give a yellow colored product (formazan) absorbing at 450 nm.” left out, “This assay was successfully used to investigate on the mechanism of ion channel-regulated cell proliferation in cell lines (Tricarico et al., [2013]).” left out
(§3) Fresh stock solutions of the test compounds were made daily and diluted in DMEM as required. […] Accordingly, cell viability in the presence of drugs was expressed as percent change with respect to the cell treated with vehicle alone, after proper subtraction of blank absorbance.
(§4) All data were expressed as mean ± S.E.M. The IC50 values, in the various experimental conditions, were determined by using a non-linear least squares fit of the concentration-response curves to the following logistic equation: Effect = −100/{1+(K/[drug])n}, where Effect is the percentage change of INa; −100 is the maximal percentage block of INa; K is IC50; n is the logistic slope factor, and [drug] is the molar concentration of the compound (Talon et al., [2001]). […] The h∞ curves have been fitted with a single Boltzmann, and the potential at which 50% of the sodium channels were inactivated (Vh1/2) was calculated at the inflection point of the curves. […]

[8] = as above; assay type: cell-based, Murine; settings: mouse, C2C12 skeletal muscle cells, 8 h of incubation, read-out: Cytotoxic effect IC50
Method: as §2, with “The CCK-8 solution contains the monosodium salt of [2-(2-methoxy-4-nitrophenyl)-3-(4-nitrophenyl)-5-(2,4-disulfophenyl)-2H-tetrazolium (WST-8), which is reduced by cellular dehydrogenases to give a yellow colored product (formazan) absorbing at 450 nm.” left out, “This assay was successfully used to investigate on the mechanism of ion channel-regulated cell proliferation in cell lines (Tricarico et al., [2013]).” left out
as §3, §4

[9] = 0.3-Hz, 10°C, read-out: Tonic block IC50
[10] = 10-Hz trains, read-out: Use-dependent block 10-Hz IC50
[11] = HP -70 mV, read-out: Voltage-dependent block HP-70 mV IC50, K-70
[12] = HP -140 mV, resting state, read-out: Voltage-dependent block HP-140 mV IC50, Kr

Compound	logP [1]	pKa [1]	logD [1]	IC50 [3, 9]	IC50 [3, 10]	Cyto-protective effect [4]	IC50 [6, 11]	IC50 [6, 12]	Ki [6]	also measured
Cc1cccc(C)c1OCC(NC(=O)C1=CC(C)(C)NC1(C)C)C(C)C (stereo not drawn) [CI16, N-{1-[(2,6-dimethylphenoxy)methyl]-2-methylpropyl}-2,2,5,5-tetramethyl-2,5-dihydro-1H-pyrrole-3-carboxamide]	3.2 ± 0.3	8.53 ± 0.01	2.1 ± 0.1	12.6 ± 0.2 µM	0.6 ± 0.1 µM	remarkable cyto-protection; also recorded: a decrease in efficacy	1.8 ± 0.4 µM	7.7 ± 0.5 µM	1.8 µM	Time constants for recovery from inactivation [2]: slowest time constants; Fold more potent than Me5, tonic block ([3]; Me5 ref De Luca et al., 2000): ~2 fold; Fold more potent than Me5, use-dependent block ([3]; Me5 ref De Luca et al., 2000): ~9 fold; BT/BUD (IC50 TB/IC50 UDB 10-Hz) [3]: 21; Shift in the h∞ curves toward more negative potentials [5]: 6.3 ± 1.1 mV; Vh1/2 [5]: -83.7±0.1 mV
OO [H2O2]	–	–	–	–	–	–	–	–	–	IC50 ([7]; 8 h of incubation, read-out: Cytotoxic effect IC50): 292 ± 25 µM
Cc1cccc(C)c1OCC(N)C(C)C (stereo not drawn) [Me5, 1-(2,6-dimethylphenoxy)-3-methyl-2-butanamine]	2.72 ± 0.02	8.97 ± 0.03	1.1 ± 0.1	–	–	moderate, albeit significant, cyto-protective effect	–	–	–	–
Cc1cccc(C)c1OCC(C)N (stereo not drawn) [Mex, 2-(2,6-dimethylphenoxy)-1-amino-propanemethylethylamine, reference compound]	–	–	–	75.3 ± 8 µM	23.6 ± 2.8 µM	moderate, albeit significant, cyto-protective effect	1.9 ± 0.2 µM	148 ± 20 µM	2 µM	IC50 at 8 h [8]: 775 ± 88 µM; R (IC50 of Mex / IC50 of compound), tonic block [3]: 1; R (IC50 of Mex / IC50 of compound), use-dependent block 10-Hz [3]: 1
CC(C)(C)n1nc(-c2ccc(Cl)cc2)c2c(N)ncnc21 [PP2]	–	–	–	–	–	–	–	–	–	Cytotoxicity compared with Mex and its analogs ([7]; 10-100 μM): more cytotoxic than Mex and its analogs
Cc1cccc(C)c1OC[C@@H](C)N [R-Mex, reference compound]	–	–	–	74 ± 8 µM	31 ± 8 µM	–	–	–	–	–
Cc1cccc(C)c1OC[C@H](C)N [S-Mex, reference compound]	–	–	–	127 ± 2.8 µM	32 ± 7 µM	–	–	–	–	–
Cc1cccc(C)c1OCC(C)NC(=O)C1=CC(C)(C)NC1(C)C (stereo not drawn) [VM11, N-[2-(2,6-dimethylphenoxy)-1-methylethyl]-2,2,5,5-tetramethyl-2,5-dihydro-1H-pyrrole-3-carboxamide]	2.8 ± 0.1	8.5 ± 0.1	1.7 ± 0.1	23.4 ± 0.9 µM	2 ± 0.1 µM	remarkable cyto-protection; also recorded: maintained the same cyto-protection observed between 3 and 30 μM	4.5 ± 0.1 µM	15.5 ± 0.6 µM	4.2 µM	BT/BUD (IC50 TB/IC50 UDB 10-Hz) [3]: 11.7 and 12; R (IC50 of Mex / IC50 of compound), use-dependent block 10-Hz ([3]; relative potency toward Mex, racemic form): 12; Cell protection ([4]; C2C12, 300 μM H2O2, drug 100 μM): 43.5 ± 2.03%; Shift in the h∞ curves toward more negative potentials [5]: 3.6 ± 1.1 mV; Vh1/2 [5]: -82±0.3 mV
